Our source for the IC50 and viability, T/C values is PubChem BioAssay AID1918953 (Molecular Pharmacology Branch, DTP, NCI, 2023).

“And” between values parts separate entries of the source, which are not always exact repeats. Identical values can stand only once.

For the experiment, the system named is MDA-MB-231 complex spheroid viability. Kind of experiment: Anticancer human tumor MDA-MB-231/ATCC cell line growth inhibition.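 For all read-outs here: drug exposure lasted 7 days starting on day 3 of spheroid growth.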 Particulars: for viability, T/C: stronger effect = lower value. In a few lines:
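Complex spheroids of tumor cells with HUVEC and human MSCs, exposed to iadademstat combined with other agents. Each agent tested in half-log steps from near clinical Cmax (else 10 microM top), DMSO ≤0.25%.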

Setting [1] is: curve of first compound, second compound 0.1 µM.
[2] abbreviates: curve of first compound, second compound 0.316 µM.
Where [3] appears, read: curve of first compound, second compound 1 µM.
[4] abbreviates: curve of first compound, second compound 3.16 µM.
The mark [5] stands for this setting: curve of first compound, second compound 10 µM.
[6] abbreviates: second compound 0.1 µM, first compound 0.00949 µM.
Setting [7] is: second compound 0.1 µM, first compound 0.03 µM.
The mark [8] stands for this setting: second compound 0.1 µM, first compound 0.0949 µM.
The mark [9] stands for this setting: second compound 0.1 µM, first compound 0.3 µM.
Where [10] appears, read: second compound 0.316 µM, first compound 0.00949 µM.
[11] abbreviates: second compound 0.316 µM, first compound 0.03 µM.
The mark [12] stands for this setting: second compound 0.316 µM, first compound 0.0949 µM.
The mark [13] stands for this setting: second compound 0.316 µM, first compound 0.3 µM.
The mark [14] stands for this setting: second compound 1 µM, first compound 0.00949 µM.
The mark [15] stands for this setting: second compound 1 µM, first compound 0.03 µM.
The mark [16] stands for this setting: second compound 1 µM, first compound 0.0949 µM.
The mark [17] stands for this setting: second compound 1 µM, first compound 0.3 µM.
[18] abbreviates: second compound 3.16 µM, first compound 0.00949 µM.
Setting [19] is: second compound 3.16 µM, first compound 0.03 µM.
[20] abbreviates: second compound 3.16 µM, first compound 0.0949 µM.
Where [21] appears, read: second compound 3.16 µM, first compound 0.3 µM.
Where [22] appears, read: second compound 10 µM, first compound 0.00949 µM.
Where [23] appears, read: second compound 10 µM, first compound 0.03 µM.
Setting [24] is: second compound 10 µM, first compound 0.0949 µM.
Setting [25] is: second compound 10 µM, first compound 0.3 µM.

On to `Nc1ncn(C2CC(O)C(CO)S2)c(=O)n1` (centres undefined) + NC1CC1c1ccc(-c2cccc(O)c2)cc1, for which the half-maximal inhibitory concentration (IC50) under setting [1] is 7.45 nM; the concentration for half-maximal inhibition (IC50) under setting [2] is 5.79 nM; the half-maximal inhibitory concentration (IC50) under setting [3] is 3.18 nM; the 50% inhibitory concentration (IC50) under setting [4] worked out at 4.17 nM; the IC50 under setting [5] was 1.08 nM. Moreover, the viability, T/C was 68.5% (second compound 0.1 µM, first compound 0.000949 µM); 61.9% (second compound 0.1 µM, first compound 0.003 µM); 45.6% under setting [6]; 32.4% under setting [7]; 17% under setting [8]; 11.3% under setting [9]. The viability, T/C runs as follows: (second compound 0.316 µM, first compound 0.000949 µM) 60.4%; (second compound 0.316 µM, first compound 0.003 µM) 59.5%; under setting [10], 43.5%; under setting [11], 27.6%; under setting [12], 17.8%; under setting [13], 9.51%. Also, the viability, T/C was 54% (second compound 1 µM, first compound 0.000949 µM); 53.4% (second compound 1 µM, first compound 0.003 µM); 39.1% under setting [14]; 28.5% under setting [15]; 18.3% under setting [16]; 10.4% under setting [17]. For the same molecule, the viability, T/C by setting is: (second compound 3.16 µM, first compound 0.000949 µM) 59.4%; (second compound 3.16 µM, first compound 0.003 µM) 53.7%; under setting [18], 41.1%; under setting [19], 31%; under setting [20], 16.1%; under setting [21], 9.57%. For the same molecule, the viability, T/C is 51.1% (second compound 10 µM, first compound 0.000949 µM); 41.2% (second compound 10 µM, first compound 0.003 µM); 28.2% under setting [22]; 19.5% under setting [23]; 12.1% under setting [24]; 9.21% under setting [25].

For the molecule `O=C(C=Cc1cccc(S(=O)(=O)Nc2ccccc2)c1)NO` + NC1CC1c1ccc(-c2cccc(O)c2)cc1, the 50% inhibitory concentration (IC50) by setting is: under setting [1], 20.3 nM; under setting [2], 13.2 nM; under setting [3], 11.4 nM; under setting [4], < 9.49 nM; under setting [5], < 9.49 nM. For the same molecule, the viability, T/C is, setting by setting: under setting [6], 61.6%; under setting [7], 44%; under setting [8], 31.3%; under setting [9], 19.1%; (second compound 0.1 µM, first compound 0.949 µM) 1.09%; (second compound 0.1 µM, first compound 3 µM) 74.2%. Moreover, the viability, T/C reads like this: under setting [10], 55.9%; under setting [11], 35.5%; under setting [12], 24.9%; under setting [13], 17.7%; (second compound 0.316 µM, first compound 0.949 µM) 0.33%; (second compound 0.316 µM, first compound 3 µM) 56.4%. Further, the viability, T/C by setting is: under setting [14], 52.5%; under setting [15], 37.2%; under setting [16], 20.9%; under setting [17], 19.7%; (second compound 1 µM, first compound 0.949 µM) 0.58%; (second compound 1 µM, first compound 3 µM) 56.9%. The viability, T/C was 47.9% under setting [18]; 31.1% under setting [19]; 18.4% under setting [20]; 15.8% under setting [21]; 0.63% (second compound 3.16 µM, first compound 0.949 µM); 58.4% (second compound 3.16 µM, first compound 3 µM). The viability, T/C is 31.4% under setting [22]; 18.4% under setting [23]; 12.8% under setting [24]; 5.16% under setting [25]; 0.34% (second compound 10 µM, first compound 0.949 µM); 37.3% (second compound 10 µM, first compound 3 µM).

With `CCN(c1cc(-c2ccc(CN3CCOCC3)cc2)cc(C(=O)NCc2c(C)cc(C)[nH]c2=O)c1C)C1CCOCC1`, the viability, T/C runs as follows: (compound 0.00949 µM) 90.6% and 108%; (compound 0.03 µM) 93.6% and 88.1%; (compound 0.0949 µM) 82.4% and 61.5%; (compound 0.3 µM) 74.9% and 42.3%; (compound 0.949 µM) 66.3% and 25.8%; (compound 3 µM) 57.7% and 15%.

On to `Nc1ncn(C2CC(O)C(CO)O2)c(=O)n1` (centres undefined), for which the viability, T/C is, setting by setting: (compound 0.00316 µM) 99.5% and 83.9%; (compound 0.01 µM) 95.3% and 91.9%; (compound 0.0316 µM) 83.2% and 87.7%; (compound 0.1 µM) 75.1% and 78.5%; (compound 0.316 µM) 64.4% and 69.5%; (compound 1 µM) 53.7% and 56.2%. Moreover, the IC50 (curve of compound) was > 1000 nM.

Regarding `O=C(C=Cn1cnc(-c2cc(C(F)(F)F)cc(C(F)(F)F)c2)n1)NNc1cnccn1`, the viability, T/C is, setting by setting: (compound 0.00316 µM) 61.8% and 35.1%; (compound 0.01 µM) 32.6% and 31.3%; (compound 0.0316 µM) 11.5% and 11.8%; (compound 0.1 µM) 9.25% and 3.52%; (compound 0.316 µM) 10.8% and 3.53%; (compound 1 µM) 5.27% and 4.37%. For the setting “curve of compound”, the IC50 is 5.04 nM and < 3.16 nM.

Regarding `NC1CC1c1ccc(-c2cccc(O)c2)cc1` (centres undefined), the viability, T/C is, setting by setting: (compound 0.316 µM) 68.1% [middle of 25 runs]; (compound 1 µM) 62.9% [middle of 25 runs]; (compound 3.16 µM) 64.5% [middle of 25 runs]; (compound 10 µM) 47.7% [middle of 25 runs].

Turning to `Nc1ncn(C2CC(O)C(CO)O2)c(=O)n1` (centres undefined) + NC1CCC(NC2CC2c2ccccc2)CC1, the IC50 is > 1000 nM under setting [1]; > 1000 nM under setting [2]; > 1000 nM under setting [3]; > 1000 nM under setting [4]; 283 nM under setting [5]. Also, the viability, T/C (second compound 0.1 µM, first compound 0.00316 µM) was 94%; the viability, T/C (second compound 0.1 µM, first compound 0.01 µM) was 94.1%; the viability, T/C (second compound 0.1 µM, first compound 0.0316 µM) was 92.3%; the viability, T/C (second compound 0.1 µM, first compound 0.1 µM) is 81.3%; the viability, T/C (second compound 0.1 µM, first compound 0.316 µM) was 71.7%; the viability, T/C (second compound 0.1 µM, first compound 1 µM) was 60.4%. The viability, T/C (second compound 0.316 µM, first compound 0.00316 µM) is 98.2%; the viability, T/C (second compound 0.316 µM, first compound 0.01 µM) was 96.7%; the viability, T/C (second compound 0.316 µM, first compound 0.0316 µM) was 92.8%; the viability, T/C (second compound 0.316 µM, first compound 0.1 µM) is 86.3%; the viability, T/C (second compound 0.316 µM, first compound 0.316 µM) was 66.8%; the viability, T/C (second compound 0.316 µM, first compound 1 µM) is 62.7%. The viability, T/C reads like this: (second compound 1 µM, first compound 0.00316 µM) 96.9%; (second compound 1 µM, first compound 0.01 µM) 94.5%; (second compound 1 µM, first compound 0.0316 µM) 89.2%; (second compound 1 µM, first compound 0.1 µM) 71.5%; (second compound 1 µM, first compound 0.316 µM) 67.4%; (second compound 1 µM, first compound 1 µM) 63.9%. In addition, the viability, T/C by setting is: (second compound 3.16 µM, first compound 0.00316 µM) 86%; (second compound 3.16 µM, first compound 0.01 µM) 84.1%; (second compound 3.16 µM, first compound 0.0316 µM) 79.2%; (second compound 3.16 µM, first compound 0.1 µM) 72.8%; (second compound 3.16 µM, first compound 0.316 µM) 59%; (second compound 3.16 µM, first compound 1 µM) 54.9%. The viability, T/C reads like this: (second compound 10 µM, first compound 0.00316 µM) 67%; (second compound 10 µM, first compound 0.01 µM) 65.5%; (second compound 10 µM, first compound 0.0316 µM) 63%; (second compound 10 µM, first compound 0.1 µM) 55.4%; (second compound 10 µM, first compound 0.316 µM) 45.2%; (second compound 10 µM, first compound 1 µM) 45.1%.

What is called IC50 is the concentration that inhibits the measured activity by half. As usually defined, the viability, T/C is the result in the treated group divided by that in the control group, in per cent.
